Literature values in US9642356B2, “Maturation or ripening inhibitor release from polymer, fiber, film, sheet or packaging” (Cellresin Technologies, LLC, priority 2009, dated 2017).

Legend:
[1] = tested on: ethylene generation
[2] = tested on: ethylene binding site

Compound	activity for inhibiting ethylene generation [1]	blocking of ethylene binding [2]
C=CCC [Example 1-butene, 1-butene]	at least some measurable activity	
CC1=CC1 [Example 1-MCP, 1-methylcyclopropene]	at least some measurable activity	
C1=CCC=C1 [Cyclopentadiene]		effective blocking agent for ethylene binding
